Results from ChEMBL document CHEMBL3745610, “A dimeric urea of the bisabolene sesquiterpene from the Okinawan marine sponge Axinyssa sp. inhibits protein tyrosine phosphatase 1B activity in Huh-7 human hepatoma cells” (Bioorg Med Chem Lett, 2016).
Active and inactive are the calls of the source. No cut-off for these calls is given here.

Key:
[1] = target: T1, Tyrosine-protein phosphatase non-receptor type 1 (Homo sapiens) (UniProt P18031); test: Inhibition of recombinant human PTP1B using pNPP as substrate at 36 uM incubated for 10 mins prior to substrate addition measured after 30 mins by microplate reader analysis
T1 sequence (whole entry): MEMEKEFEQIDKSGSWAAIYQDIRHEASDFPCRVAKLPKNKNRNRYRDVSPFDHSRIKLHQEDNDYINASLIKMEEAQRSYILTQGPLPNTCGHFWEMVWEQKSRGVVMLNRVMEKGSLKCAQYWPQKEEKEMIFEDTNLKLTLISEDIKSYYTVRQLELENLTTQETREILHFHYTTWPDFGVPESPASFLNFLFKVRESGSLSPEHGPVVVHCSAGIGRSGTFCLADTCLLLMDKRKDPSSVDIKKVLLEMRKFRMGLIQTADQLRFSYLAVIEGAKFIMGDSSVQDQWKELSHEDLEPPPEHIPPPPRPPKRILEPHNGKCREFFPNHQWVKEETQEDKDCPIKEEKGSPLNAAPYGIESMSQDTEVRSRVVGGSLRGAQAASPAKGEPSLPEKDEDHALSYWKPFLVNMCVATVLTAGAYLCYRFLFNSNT

[2] = Cytotoxicity against human HuH7 cells assessed as cell viability after 72 hrs by WST-1 assay; assay type: cell-based; conditions: Huh-7, 72 h
[3] = Cytotoxicity against human EJ1 cells assessed as cell viability after 72 hrs by WST-1 assay; assay type: cell-based; conditions: EJ1, 72 h
[4] = target: T1, Tyrosine-protein phosphatase non-receptor type 1 (Homo sapiens); test: Inhibition of recombinant human PTP1B using pNPP as substrate at 24 uM incubated for 10 mins prior to substrate addition measured after 30 mins by microplate reader analysis
[5] = target: T2, Tyrosine-protein phosphatase non-receptor type 1 (Homo sapiens, UniProt P18031); test: Inhibition of recombinant human PTP1B using pNPP as substrate incubated for 10 mins prior to substrate addition measured after 30 mins by microplate reader analysis
T2 sequence (P18031 whole entry): T1 sequence (whole entry)

[6] = target: T1, Tyrosine-protein phosphatase non-receptor type 1 (Homo sapiens); test: Inhibition of PTP1B in human Huh7 cells assessed as increase in insulin-stimulated phosphorylated Akt level at 20 uM preincubated for 2 hrs followed by insulin stimulation for 5 mins by Western blot analysis; assay type: cell-based; conditions: Huh-7
[7] = target: T1, Tyrosine-protein phosphatase non-receptor type 1 (Homo sapiens); test: Inhibition of PTP1B in human Huh7 cells assessed as increase in phosphorylated Akt level at 20 uM after 2 hrs by Western blot analysis; assay type: cell-based; conditions: Huh-7
[8] = target: T1, Tyrosine-protein phosphatase non-receptor type 1 (Homo sapiens); test: Inhibition of PTP1B in human Huh7 cells assessed as increase in phosphorylated Akt level at 50 uM after 2 hrs by Western blot analysis; assay type: cell-based; conditions: Huh-7
[9] = target: T1, Tyrosine-protein phosphatase non-receptor type 1 (Homo sapiens); test: Inhibition of PTP1B in human Huh7 cells assessed as increase in insulin-stimulated phosphorylated Akt level at 50 uM preincubated for 2 hrs followed by insulin stimulation for 5 mins by Western blot analysis; assay type: cell-based; conditions: Huh-7
[10] = target: T1, Tyrosine-protein phosphatase non-receptor type 1 (Homo sapiens); test: Inhibition of PTP1B in human Huh7 cells assessed as increase in insulin-stimulated phosphorylated Akt level preincubated for 2 hrs followed by insulin stimulation for 5 mins by Western blot analysis; assay type: cell-based; conditions: Huh-7

Row | IC50 [5] [µM] | inhibition [6] | inhibition [7] | inhibition [8] | inhibition [9] | inhibition [10] | Compound | inhibition [1] [%] | IC50 [2] [µM] | IC50 [3] [µM] | inhibition [4] [%]
1 |  |  |  |  |  |  | CC(C)[C@@H]1CC[C@](C)(N=C=S)[C@@H]2CC[C@@](C)(O)C=C12 [AXINISOTHIOCYANATE J] | 50 | > 50 | > 50 | 
2 |  |  |  |  |  |  | C=C(C)[C@@H](C)/C=C/[C@@H](C)[C@H]1CC[C@@H]2[C@]1(C)CC[C@H]1[C@]23C=C[C@]2(C[C@@H](O)CC[C@]12C)OO3 |  | 26 | 21 | 50
3 | > 45 | inactive | inactive | inactive | inactive |  | CC(C)=CCC[C@](C)(N)[C@H]1CC=C(C)CC1 |  | > 50 | > 50 | 
4 | 1.9 |  | inactive | inactive |  | Dose-dependent effect | CC(C)=CCC[C@](C)(NC(=O)N[C@@](C)(CCC=C(C)C)[C@H]1CC=C(C)CC1)[C@H]1CC=C(C)CC1 |  | > 50 | > 50 | 
5 |  |  |  |  |  |  | COc1cccc2c1C(=O)c1c(O)c3c(c(O)c1C2=O)C[C@@](O)(C(=O)CO)C[C@@H]3O[C@H]1C[C@H](N)[C@H](O)[C@H](C)O1 [DOXORUBICIN] |  |  | 0.023 | 
6 | 17 |  |  |  |  |  | CC1=C[C@H]2[C@@H](CC1)[C@@](C)(N=C=S)CC[C@H]2C(C)C |  | > 50 | > 50 | 
